Numbered stars: 1 amine (or outer) side, 2 acyl side, 3 side chain; on linkers, the order of the positions; unused ones are H or OH. Bridge positions count the residues as written; N and C are the ends. Square brackets hold non-standard residues; d marks the D form. Peptide text beside a SMILES is read from it. ξ: configuration not given here. X1 = N=C(N)CNCC[C@H](N[*:1])C(=O)[*:2]; Thr(3ξ) = CC(O)[C@H](N)C(=O)O; Nle = CCCC[C@H](N)C(=O)O
Columns and labels:
[1] = system: LPS-induced lung inflammation in male C57BL/6 mice; assay: LPS-induced lung inflammation in male C57BL/6 mice (BAL neutrophilia); assay type: in vivo; conditions: BAL fluid neutrophilia
Experimental: C57bl/6 mice are pretreated with vehicle or drug prior to an aerosol expose to lipopolysacchride (LPS, 500 μg/ml in sterile saline) for 15-30 minutes. The aerosol is generated by a Pari Ultra neb jet nebulizer, the outlet of which is connected to a small clear plastic chamber [H×W×D, 10.7×25.7×11 cm (4×10×4.5 in)] containing the animals. Bronchoalveolar lavage (BAL) is performed 24 hr later to determine the intensity of cell inflammation. BAL procedure is performed as described below.
Mice are pretreated with vehicle or drug prior to an intranasal administration of lipopolysacchride (0.05-0.3 mg/kg in sterile saline; 50 μl total volume, 25 μl/nostril). Intranasal administration is performed by presenting small droplets of the dosing solution at the nostril using a 25-50 μl eppendorff pipet. BAL is performed 3 to 24 h post LPS challenged as described above to determine the intensity of cell inflammation.
24 h following LPS exposure, animals are anesthetized with pentobarbital (80-100 mg/kg, i.p.), ketamine/xyzaline (80-120 mg/kg/2-4 mg/kg, i.p.) or urethane (1.5-2.4 g/kg, i.p.); and through a small midline neck incision (15-20 mm), the trachea is exposed and cannulated with 20-gauge tubing adapter. Lungs are lavaged with 2×1 ml sterile Hank's balanced salt solution without Ca++ and Mg++(HBSS). Lavage fluid is recovered after 30 sec by gentle aspiration and pooled for each animal. Samples are then centrifuged at 2000 rpm for 10 minutes at 5° C. Supernatant is aspirated, and red blood cells are lysed from the resulting pellet with 0.5 ml distilled water for 30 sec before restoring osmolarity to the remaining cells by the addition of 5 ml of HBSS. Samples are recentrifuged at 2000 rpm for 10 minutes at 5° C. and supernatant aspirated. The resulting pellet is resuspended in 1 ml of HBSS. Total cell number is determined by Trypan Blue (Sigma Chemical, St. Louis, Mo.) exclusion from an aliquot of cell suspension using a hemocytometer or coulter counter. For differential cell counts, an aliquot of the cell suspension is centrifuged in a Cytospin (5 min, 1300 rpm; Shandon Southern Instruments, Sewickley, Pa.) and the slides fixed and stained with a modified Wright's stain (Hema 3 stain kit, Fisher Scientific). Standard morphological criteria is used in classifying at least 300 cells under light microscopy. Data in Table 3 is expressed as BAL cells×10^4/animal for neutrophils and total cells, or percent inhibition of the LPS induced BAL fluid neutrophilia response.

[2] = biological target: T1, human neutrophil elastase (Homo sapiens, UniProt P08246); assay: Peptide stability to neutrophil elastase (RP HPLC ESI MS); conditions: halftime with human neutrophil elastase 1 to 2 μg/mL in PBS, ambient temperature, normalized to halftime of the reference standard
T1 sequence (P08246 30-247 limits assumed): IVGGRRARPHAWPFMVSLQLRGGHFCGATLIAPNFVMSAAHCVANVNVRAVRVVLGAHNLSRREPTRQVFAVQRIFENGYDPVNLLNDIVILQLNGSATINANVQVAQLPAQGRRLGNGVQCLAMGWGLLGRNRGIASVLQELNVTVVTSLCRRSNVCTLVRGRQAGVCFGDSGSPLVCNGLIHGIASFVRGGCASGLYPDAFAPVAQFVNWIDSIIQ

VPAC2 receptor = biological target: T2, VPAC2 receptor (Homo sapiens, UniProt P41587); assay: Sup-T1 cAMP agonist assay; assay type: cell-based; conditions: human T-lymphoid cell line Sup-T1 expressing VPAC2 receptor; cAMP EIA; 5 min at room temperature; read-out: Sup-T1 cAMP EC50
T2 construct: The human T-lymphoid cell line Sup-Ti, which expresses the VPAC2 receptor; host or cells: Sup-T1 (Sup-Ti [sic]) human T-lymphoid cell line
T2 sequence (P41587 24-438): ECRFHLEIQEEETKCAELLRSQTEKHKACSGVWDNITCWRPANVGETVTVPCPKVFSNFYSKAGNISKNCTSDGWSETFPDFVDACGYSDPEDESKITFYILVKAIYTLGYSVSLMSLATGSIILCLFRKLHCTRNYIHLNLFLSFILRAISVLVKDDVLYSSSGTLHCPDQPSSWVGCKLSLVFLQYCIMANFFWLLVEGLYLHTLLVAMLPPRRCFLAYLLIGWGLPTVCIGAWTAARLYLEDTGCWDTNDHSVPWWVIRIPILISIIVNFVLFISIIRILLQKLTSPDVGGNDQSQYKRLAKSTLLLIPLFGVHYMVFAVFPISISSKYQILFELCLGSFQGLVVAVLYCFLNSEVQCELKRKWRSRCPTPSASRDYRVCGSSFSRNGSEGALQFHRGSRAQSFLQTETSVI
Experimental: The human T-lymphoid cell line Sup-Ti, which expresses the VPAC2 receptor, was obtained from the American Type Culture Collection (ATCC, CRL-1942) and maintained in growth medium at densities between 0.2 and 2×10^6 cells/ml in a 37° C. CO2 incubator. The growth medium was RPMI 1640 (Invitrogen) supplemented with 25 mM HEPES buffer and 10% fetal bovine serum (Gemini Bioproducts).
To evaluate VPAC2 agonist compound activity, cells in log-phase growth were washed once with growth medium at room temperature and plated into 96-well plates at a density of 4×10^4 cells per well in 150 uL of growth medium. Fifty uL of the compounds to be tested, prepared at appropriate concentrations in growth medium, were then added to designated wells. After 5 min at room temperature, the cells were lysed by adding 25 uL of lysis reagent 1A (cAMP Biotrak EIA system, Amersham Biosciences, RPN225) to each well. The 96-well plates were kept at room temperature for 10 min with shaking and then stored at 4° C. until analysis for cAMP (within 2 hr).
Cyclic AMP levels were determined in 100 uL of each lysate using the cAMP Biotrak Enzymeimmunoassay (EIA) kit according to the manufacture's instructions (Amersham Biosciences, RPN225). The activity of each VPAC2 agonist compound (EC50 value) was estimated by fitting the 7-concentration dose response data to a sigmoidal dose-response equation provided by the GraphPad Prism program (GraphPad Software, Inc.).

Relative elastase stability [2] | EC50 (VPAC2 receptor) | Compound | Inhibition of LPS-induced neutrophilia ([1]; Dose 0.01%) | Inhibition of LPS-induced neutrophilia ([1]; Dose 0.1%)
4.6 | 23.3 nM | CCCC[C@H](NC(=O)[C@H](CCCNC(=N)N)NC(=O)[C@H](CCCCN)NC(=O)[C@H](CCCNC(=N)N)NC(=O)[C@H](CC(C)C)NC(=O)[C@H](CCCCN)NC(=O)[C@@H](NC(=O)[C@H](Cc1ccc(O)cc1)NC(=O)[C@H](CC(N)=O)NC(=O)[C@H](CCC(=O)O)NC(=O)[C@@H](NC(=O)[C@H](Cc1ccccc1)NC(=O)[C@H](CO)NC(=O)[C@H](C)NC(=O)[C@H](CC(=O)O)NC(=O)[C@H](C)NC(=O)[C@H](Cc1c[nH]cn1)NC(C)=O)C(C)O)C(C)O)C(=O)N[C@@H](CCC(=O)O)C(=O)N[C@@H](C)C(=O)N[C@@H](CCCCN)C(=O)N[C@H]1CCCCNC(=O)C[C@@H](C(=O)N[C@@H](CC(C)C)C(=O)N[C@@H](CCCCN)C(=O)N[C@@H](CCCCN)C(=O)NCC(=O)NCC(=O)N[C@H](C(N)=O)C(C)O)NC(=O)[C@H](CC(N)=O)NC(=O)[C@H](CC(C)C)NC(=O)[C@H](Cc2ccc(O)cc2)NC1=O (stereo partly drawn) [Example 17] (Ac-HADASF[Thr(3ξ)]ENY[Thr(3ξ)]KLRKR[Nle]EAKKYLNDLKKGG[Thr(3ξ)]-NH2; lactam 21-25) | + (+ 10-30%) | 
1.7 | 17.6 nM | CCCC[C@H](NC(=O)[C@H](CCNCC(=N)N)NC(=O)[C@H](CCCCN)NC(=O)[C@H](CCCNC(=N)N)NC(=O)[C@H](CC(C)C)NC(=O)[C@H](CCCCN)NC(=O)[C@@H](NC(=O)[C@H](Cc1ccc(O)cc1)NC(=O)[C@H](CC(N)=O)NC(=O)[C@H](CCC(=O)O)NC(=O)[C@@H](NC(=O)[C@H](Cc1ccccc1)NC(=O)[C@H](CO)NC(=O)[C@H](C)NC(=O)[C@H](CC(=O)O)NC(=O)[C@H](CO)NC(=O)[C@H](Cc1c[nH]cn1)NC(C)=O)C(C)O)C(C)O)C(=O)N[C@@H](C)C(=O)N[C@@H](C)C(=O)N[C@@H](CCCCN)C(=O)N[C@H]1CCCCNC(=O)C[C@@H](C(=O)N[C@@H](CC(C)C)C(=O)N[C@@H](CCCCN)C(=O)N[C@@H](CCCCN)C(=O)NCC(=O)NCC(=O)N[C@H](C(N)=O)C(C)O)NC(=O)[C@H](CC(N)=O)NC(=O)[C@H](CC(C)C)NC(=O)[C@H](Cc2ccc(O)cc2)NC1=O (stereo partly drawn) [Example 13] (Ac-HSDASF[Thr(3ξ)]ENY[Thr(3ξ)]KLRK[X1][Nle]AAKKYLNDLKKGG[Thr(3ξ)]-NH2; lactam 21-25) | ++ (++ >30%) | 
5.2 | 69.7 nM | CCCC[C@H](NC(=O)[C@H](CCC(N)=O)NC(=O)[C@H](CCCCN)NC(=O)[C@H](CCCNC(=N)N)NC(=O)[C@H](CC(C)C)NC(=O)[C@H](CCCCN)NC(=O)[C@@H](NC(=O)[C@H](Cc1ccc(O)cc1)NC(=O)[C@H](CC(N)=O)NC(=O)[C@H](CCC(=O)O)NC(=O)[C@@H](NC(=O)[C@H](Cc1ccccc1)NC(=O)[C@H](CO)NC(=O)[C@H](C)NC(=O)[C@H](CC(=O)O)NC(=O)[C@H](CO)NC(=O)[C@H](Cc1c[nH]cn1)NC(C)=O)C(C)O)C(C)O)C(=O)N[C@@H](C)C(=O)N[C@@H](C)C(=O)N[C@@H](CCCCN)C(=O)N[C@H]1CCCCNC(=O)C[C@@H](C(=O)N[C@@H](CC(C)C)C(=O)N[C@@H](CCCCN)C(=O)N[C@@H](CCCCN)C(=O)NCC(=O)NCC(=O)N[C@H](C(N)=O)C(C)O)NC(=O)[C@H](CC(N)=O)NC(=O)[C@H](CC(C)C)NC(=O)[C@H](Cc2ccc(O)cc2)NC1=O (stereo partly drawn) [Example 2] (Ac-HSDASF[Thr(3ξ)]ENY[Thr(3ξ)]KLRKQ[Nle]AAKKYLNDLKKGG[Thr(3ξ)]-NH2; lactam 21-25) |  | + (+ 10-30%)
4.8 | 117 nM | CCCC[C@H](NC(=O)[C@H](CCCNC(=N)N)NC(=O)[C@H](CCCCN)NC(=O)[C@H](CCCNC(=N)N)NC(=O)[C@H](CC(C)C)NC(=O)[C@H](CCCCN)NC(=O)[C@@H](NC(=O)[C@H](Cc1ccc(O)cc1)NC(=O)[C@H](CC(N)=O)NC(=O)[C@H](CCC(=O)O)NC(=O)[C@@H](NC(=O)[C@H](Cc1ccccc1)NC(=O)[C@H](CO)NC(=O)[C@H](C)NC(=O)[C@H](CC(=O)O)NC(=O)[C@H](CO)NC(=O)[C@H](Cc1c[nH]cn1)NC(C)=O)C(C)O)C(C)O)C(=O)N[C@@H](CCC(=O)O)C(=O)N[C@@H](C)C(=O)N[C@@H](CCCCN)C(=O)N[C@H]1CCCCNC(=O)C[C@@H](C(=O)N[C@@H](CC(C)C)C(=O)N[C@@H](CCCCN)C(=O)N[C@@H](CCCCN)C(=O)NCC(=O)NCC(=O)N[C@H](C(N)=O)C(C)O)NC(=O)[C@H](CC(N)=O)NC(=O)[C@H](CC(C)C)NC(=O)[C@H](Cc2ccc(O)cc2)NC1=O (stereo partly drawn) [Example 15] (Ac-HSDASF[Thr(3ξ)]ENY[Thr(3ξ)]KLRKR[Nle]EAKKYLNDLKKGG[Thr(3ξ)]-NH2; lactam 21-25) | + (+ 10-30%) | 
3.5 | 11.4 nM | CCCC[C@H](NC(=O)[C@H](CCC(N)=O)NC(=O)[C@H](CCCCN)NC(=O)[C@H](CCCNC(=N)N)NC(=O)[C@H](CC(C)C)NC(=O)[C@H](CCCCN)NC(=O)[C@@H](NC(=O)[C@H](Cc1ccc(O)cc1)NC(=O)[C@H](CC(N)=O)NC(=O)[C@H](CCC(=O)O)NC(=O)[C@@H](NC(=O)[C@H](Cc1ccccc1)NC(=O)[C@H](CO)NC(=O)[C@H](C)NC(=O)[C@H](CC(=O)O)NC(=O)[C@H](CO)NC(=O)[C@H](Cc1c[nH]cn1)NC(C)=O)C(C)O)C(C)O)C(=O)N[C@@H](C)C(=O)N[C@@H](C)C(=O)N[C@@H](CCCCN)C(=O)N[C@H]1CCCCNC(=O)C[C@@H](C(=O)N[C@@H](CC(C)C)C(=O)N[C@@H](CC(C)C)C(=O)N[C@@H](CCCCN)C(=O)NCC(=O)NCC(=O)N[C@H](C(N)=O)C(C)O)NC(=O)[C@H](CC(N)=O)NC(=O)[C@H](CC(C)C)NC(=O)[C@H](Cc2ccc(O)cc2)NC1=O (stereo partly drawn) [Example 8] (Ac-HSDASF[Thr(3ξ)]ENY[Thr(3ξ)]KLRKQ[Nle]AAKKYLNDLLKGG[Thr(3ξ)]-NH2; lactam 21-25) |  | ++ (++ >30%)
